Laboratory results reported in patent US10525055B2, “Opioid receptor antagonist prodrugs” (Nirsum Laboratories, Inc., priority 2017, dated 2020).

Assays:
[1] = Physical characterization of solid state drug substance (PLM, XRPD, DSC, TGA); assay type: physicochemical; conditions: solid state drug substance, XRPD/PLM
Procedure: The analysis of the physical characteristics of drug substances that were in a solid state was conducted using polarized light microscopy (PLM), X-ray powder diffractometer (XRPD) assessment, Differential Scanning calorimetry (DSC) and Thermal Gravimetric Analysis (TGA). For PLM, samples were dispersed in immersion oil and were observed using an ocular lens (10×) and objective lens (20×) under crossed polarizers. For XRPD, samples were run on a diffractometer using the following method: Tube—Cu: K-alpha (λ=1.54179 Å); Generator—Voltage 40 kV, Current 40 mA; Scan scope—3 to 40°; sample rotation speed—15 rpm; scanning rate—10 deg/min. For DSC, ˜1 mg of sample was tested using a crimped aluminum pan and covered by a lid with a hole, heated from room temperature to 300° C. at a speed of 10° C./minute. For TGA, 2-5 mg of sample was placed in an open platinum pan and heated from room temperature to 300° C. at a rate of 10° C./minute.

[2] = Polymorph screening of solid state drug substances; conditions: for XRPD results (Dried): stirred 50 °C 72 hours, solids dried; for Visual observation 50° C. / Visual observation RT: target conc. 100 mg/ml
KOR = target: T1, KOR (Homo sapiens, UniProt P41145); test: Opioid receptor binding assay, KOR ([3H]Diprenorphine); conditions: KOR
T1 construct: expressed in transfected cells; membranes prepared from them

DOR = target: T2, DOR (Homo sapiens, UniProt P41143); test: Opioid receptor binding assay, DOR ([3H]-DADLE); conditions: DOR
T2 construct: expressed in transfected cells; membranes prepared from them

MOR = target: T3, MOR (Homo sapiens, UniProt P35372); test: Opioid receptor binding assay, MOR ([3H]DAMGO); conditions: MOR
T3 construct: expressed in transfected cells; membranes prepared from them

[3] = Plasma stability assay, rat plasma; assay type: in vitro ADME; conditions: 37° C., 10 μM
Procedure: Plasma stability determination of the test compounds in rat, dog, cynomolgus monkey and human plasma is performed using HPLC-MS. For rat, incubations are carried out in 96-well polypropylene plates in 5 aliquots of 70 μL each (one for each time point). […] Five time points are analyzed (0, 15, 120, 480 and 1440 min). For dog, monkey and human, test compounds (2 μM, final solvent concentration 1%) were also incubated at 37° C. and analyzed at five time points (0, 10, 30, 60 and 120 min). All incubations are performed in duplicates. The samples are analyzed by HPLC-MS. The percentage of parent compound remaining after incubation in plasma is determined.

[4] = Solubility determination in oil (cottonseed oil, sesame oil); conditions: heating temp. 60 °C, obs. temp. 25 °C
Procedure: A known amount of test substance (˜40 mg) was weighed into the vial, 100 μL of oil was added and heated to 60° C. and then system was slurried to reach equilibrium. […] Extra oil was added into the vial once compound precipitated out and then the system was re-equilibrated at 1000 rpm at room temperature (25° C.). Final concentration was determined by HPLC method as described below in Table 6a and 6b.

[5] = Dog pharmacokinetic studies, deep intramuscular; assay type: in vivo, Beagle dogs; conditions: dog IM, Cottonseed + 1% Benzyl Alcohol
Procedure: The purpose of this study is to determine the pharmacokinetics of test compounds in plasma, following deep intramuscular administration to Beagle dogs (n=3, unless otherwise specified).
The dose formulation (concentration−400 mg base equivalents/ml in sesame oil+1% benzyl alcohol, unless otherwise specified) was administered via deep intramuscularly (unless otherwise specified). The injection vehicle was also dosed via deep intramuscular route (unless otherwise specified) on contralateral site of each animal at study initiation. The animals were sedated with Propofol at 6 mg/kg via IV administration. Following sedation hair was carefully removed from around the injection site and the area gently cleaned. Care will be taken to avoid irritating skin during shaving and cleaning the injection site. Then dogs will be dosed with deep IM administration. At least 2.5 cm depth from the surface into the central aspect of the quadriceps or biceps femoris muscle, by angling the needle toward the femur. If the needle hits the femur, simply draws back slightly and then inject. The dose volume will be determined by the animals' body weight collected on the morning of dosing day. For repeated administration, the injection sites may be rotated to minimize tissue injury.
Blood samples were collected from a peripheral vessel from restrained, non-sedated animals per sampling time point.
Approximately 0.8 mL blood will be collected at each time point.
Each collected blood sample was centrifuged for 4 minutes at 4° C. and 10000 rpm for plasma collection. Plasma was collected and transferred into a pre-labeled PP tube in dry ice at each time point and precipitated immediately using ACN at a ratio of 1:4 (plasma:ACN). Centrifuged again (10 minutes, 12000 rpm) and obtain the supernatant.
After terminal collection, all supernatant was stored at approximately −80° C. F until bioanalysis.
LC-MS/MS methods for the quantitative determination of test compound in biological matrix were developed. […] The sample analysis was performed concurrently with a set of calibration standards and two sets of QC samples using the LC-MS/MS method.
Plasma concentration versus time data was analyzed by non-compartmental approaches using the Phoenix WinNonlin 6.3 software program. Cmax, Tmax, T1/2, AUC(0-t), AUC(0-inf), MRT(0-t), MRT(0-inf) and graphs of plasma concentration versus time profile were prepared.

T2 sequence (P41143 whole entry): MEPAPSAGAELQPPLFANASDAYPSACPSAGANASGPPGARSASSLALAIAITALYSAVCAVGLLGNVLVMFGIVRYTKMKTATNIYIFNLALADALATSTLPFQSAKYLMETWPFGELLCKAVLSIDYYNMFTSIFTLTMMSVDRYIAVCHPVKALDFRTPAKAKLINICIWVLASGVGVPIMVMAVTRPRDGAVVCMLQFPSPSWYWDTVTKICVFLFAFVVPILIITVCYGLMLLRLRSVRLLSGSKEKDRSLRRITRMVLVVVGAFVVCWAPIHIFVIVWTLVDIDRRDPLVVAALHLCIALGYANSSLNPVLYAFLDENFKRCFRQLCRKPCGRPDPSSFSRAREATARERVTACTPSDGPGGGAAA
T1 sequence (P41145 whole entry): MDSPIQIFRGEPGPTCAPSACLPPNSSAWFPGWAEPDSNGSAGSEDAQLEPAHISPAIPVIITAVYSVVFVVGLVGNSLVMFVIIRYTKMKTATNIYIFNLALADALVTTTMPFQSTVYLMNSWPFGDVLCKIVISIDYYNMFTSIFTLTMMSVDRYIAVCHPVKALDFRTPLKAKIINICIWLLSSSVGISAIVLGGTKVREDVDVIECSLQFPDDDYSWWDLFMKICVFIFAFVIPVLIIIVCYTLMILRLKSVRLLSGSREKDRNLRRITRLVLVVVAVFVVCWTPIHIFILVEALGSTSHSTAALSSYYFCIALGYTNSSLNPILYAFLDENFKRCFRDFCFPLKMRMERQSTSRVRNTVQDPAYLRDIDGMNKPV
T3 sequence (P35372 whole entry): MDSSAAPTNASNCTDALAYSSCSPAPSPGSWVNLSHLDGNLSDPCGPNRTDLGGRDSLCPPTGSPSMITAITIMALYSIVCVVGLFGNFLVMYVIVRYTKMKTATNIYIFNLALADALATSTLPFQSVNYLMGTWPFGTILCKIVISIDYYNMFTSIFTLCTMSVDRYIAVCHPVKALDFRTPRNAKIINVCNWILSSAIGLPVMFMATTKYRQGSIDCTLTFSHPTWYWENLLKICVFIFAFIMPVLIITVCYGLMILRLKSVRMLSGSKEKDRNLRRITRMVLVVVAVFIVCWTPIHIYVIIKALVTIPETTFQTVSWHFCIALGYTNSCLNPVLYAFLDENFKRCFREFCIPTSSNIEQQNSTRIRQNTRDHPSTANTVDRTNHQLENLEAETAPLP

C=C1CC[C@@]2(O)C3Cc4ccc(OC(=O)NC(C)(C)C)c5c4[C@@]2(CCN3CC2CC2)[C@H]1O5 [Compound 40, (4aS,7aS,12bS)-3-(cyclopropylmethyl)-4a-hydroxy-7-methylene-2,3,4,4a,5,6,7,7a-octahydro-1H-4,12-methanobenzofuro[3,2-e]isoquinolin-9-yl tert-butylcarbamate]
X-ray Powder Diffraction [1]: Crystal form with partial
XRPD results (Dried) ([2]; Acetone): Amorphous
Visual observation 50° C. ([2]; Acetone): Clear
Visual observation RT ([2]; Acetone): Slurry
XRPD results (Dried) ([2]; EtOAc): Pattern A
Visual observation 50° C. ([2]; EtOAc): Clear
Visual observation RT ([2]; EtOAc): Slurry
XRPD results (Dried) ([2]; Heptane): Pattern A
Visual observation 50° C. ([2]; Heptane): Slurry
Visual observation RT ([2]; Heptane): Slurry
XRPD results (Dried) ([2]; Isopropanol): Amorphous
Visual observation 50° C. ([2]; Isopropanol): Clear
Visual observation RT ([2]; Isopropanol): Slurry
XRPD results (Dried) ([2]; MTBE): Amorphous
Visual observation 50° C. ([2]; MTBE): Clear
Visual observation RT ([2]; MTBE): Clear
Comment: stability of initial crystal form (pattern A) ([2]; polymorph screen over Heptane, MTBE, Isopropanol, EtOAc, Acetone): stable form. Same crystal form

CCCCCCCCOC(=O)Oc1ccc2c3c1O[C@H]1C(=O)CC[C@@]4(O)C(C2)N(CC2CC2)CC[C@]314 [Compound 23, (4aS,7aR,12bS)-3-(cyclopropylmethyl)-4a-hydroxy-7-oxo-2,3,4,4a,5,6,7,7a-octahydro-1H-4,12-methanobenzofuro[3,2-e]isoquinolin-9-yl octyl carbonate]
%Inh@MaxDose (KOR; MaxDose 10000 nM): 101.6%
%Inh@MaxDose (DOR; MaxDose 10000 nM): 95.6%
%Inh@MaxDose (MOR; MaxDose 10000 nM): 98.7%
% remaining at time point in minutes, 0 min [3]: 10%
% remaining at time point in minutes, 15 min [3]: 0%
% remaining at time point in minutes, 120 min [3]: 0%
% remaining at time point in minutes, 480 min [3]: 0%
% remaining at time point in minutes, 1440 min [3]: 0%
Approximate Solubility (mg/mL) in Excipient: Cottonseed oil ([4]; Cottonseed oil): >407.7 mg/mL
Approximate Solubility (mg/mL) in Excipient: Sesame oil [4]: >423.9 mg/mL

C=C1CC[C@@]2(O)C3Cc4ccc(OCOC(=O)OCCCCCCCCCCCCCC)c5c4[C@@]2(CCN3CC2CC2)[C@H]1O5 [Compound 25, (((4aS,7aS,12bS)-3-(cyclopropylmethyl)-4a-hydroxy-7-methylene-2,3,4,4a,5,6,7,7a-octahydro-1H-4,12-methanobenzofuro[3,2-e]isoquinolin-9-yl)oxy)methyl tetradecyl carbonate]
%Inh@MaxDose (KOR; MaxDose 10000 nM): 76.9%
%Inh@MaxDose (DOR; MaxDose 10000 nM): 62%
%Inh@MaxDose (MOR; MaxDose 10000 nM): 87.3%
% remaining at time point in minutes, 0 min [3]: 100%
% remaining at time point in minutes, 15 min [3]: 82.6%
% remaining at time point in minutes, 120 min [3]: 69.3%
% remaining at time point in minutes, 480 min [3]: 62.2%
% remaining at time point in minutes, 1440 min [3]: 51.7%

C=C1CC[C@@]2(O)C3Cc4ccc(OC(=O)OCCCCCCCCCCCCCCC)c5c4[C@@]2(CCN3CC2CC2)[C@H]1O5 [Compound 32, (4aS,7aS,12bS)-3-(cyclopropylmethyl)-4a-hydroxy-7-methylene-2,3,4,4a,5,6,7,7a-octahydro-1H-4,12-methanobenzofuro[3,2-e]isoquinolin-9-yl pentadecyl carbonate]
%Inh@MaxDose (KOR; MaxDose 10000 nM): 80.1%
%Inh@MaxDose (MOR; MaxDose 10000 nM): 75.9%
Approximate Solubility (mg/mL) in Excipient: Sesame oil [4]: >410 mg/mL

C=C1CC[C@@]2(O)C3Cc4ccc(OCOC(=O)CCCCCCCCCCCCCCC)c5c4[C@@]2(CCN3CC2CC2)[C@H]1O5 [Compound 46, (((4aS,7aS,12bS)-3-(cyclopropylmethyl)-4a-hydroxy-7-methylene-2,3,4,4a,5,6,7,7a-octahydro-1H-4,12-methanobenzofuro[3,2-e]isoquinolin-9-yl)oxy)methyl hexadecanoate]
%Inh@MaxDose (KOR; MaxDose 10000 nM): 101.8%
%Inh@MaxDose (DOR; MaxDose 10000 nM): 72.3%
%Inh@MaxDose (MOR; MaxDose 10000 nM): 102.3%

C=C1CC[C@@]2(O)C3Cc4ccc(OCOC(=O)CCCCCCCCCCC)c5c4[C@@]2(CCN3CC2CC2)[C@H]1O5 [Compound 44, (((4aS,7aS,12bS)-3-(cyclopropylmethyl)-4a-hydroxy-7-methylene-2,3,4,4a,5,6,7,7a-octahydro-1H-4,12-methanobenzofuro[3,2-e]isoquinolin-9-yl)oxy)methyl dodecanoate]
%Inh@MaxDose (KOR; MaxDose 10000 nM): 99.2%
%Inh@MaxDose (DOR; MaxDose 10000 nM): 79.1%
%Inh@MaxDose (MOR; MaxDose 10000 nM): 83.1%

C=C1CC[C@@]2(O)C3Cc4ccc(OC(=O)OCCCCCCCCCCCCC)c5c4[C@@]2(CCN3CC2CC2)[C@H]1O5 [Compound 30, (4aS,7aS,12bS)-3-(cyclopropylmethyl)-4a-hydroxy-7-methylene-2,3,4,4a,5,6,7,7a-octahydro-1H-4,12-methanobenzofuro[3,2-e]isoquinolin-9-yl tridecyl carbonate]
%Inh@MaxDose (KOR; MaxDose 10000 nM): 97.6%
%Inh@MaxDose (DOR; MaxDose 10000 nM): 84.3%
%Inh@MaxDose (MOR; MaxDose 10000 nM): 82.5%
% remaining at time point in minutes, 0 min [3]: 100%
% remaining at time point in minutes, 15 min [3]: 65.7%
% remaining at time point in minutes, 120 min [3]: 40.3%
% remaining at time point in minutes, 480 min [3]: 30.5%
% remaining at time point in minutes, 1440 min [3]: 22.2%
Approximate Solubility (mg/mL) in Excipient: Sesame oil [4]: 252.55 to 398.6 mg/mL

C=C1CC[C@@]2(O)C3Cc4ccc(OCOC(=O)CCCCCCCCCCCCC)c5c4[C@@]2(CCN3CC2CC2)[C@H]1O5 [Compound 45, (((4aS,7aS,12bS)-3-(cyclopropylmethyl)-4a-hydroxy-7-methylene-2,3,4,4a,5,6,7,7a-octahydro-1H-4,12-methanobenzofuro[3,2-e]isoquinolin-9-yl)oxy)methyl tetradecanoate]
%Inh@MaxDose (KOR; MaxDose 10000 nM): 100.1%
%Inh@MaxDose (DOR; MaxDose 10000 nM): 71.8%
%Inh@MaxDose (MOR; MaxDose 10000 nM): 93.7%
AUC0-inf (ng · h/mL) prodrug ([5]; 30 mg/kg): 100 ng·h/mL
Half-life t1/2 (hour) prodrug ([5]; 30 mg/kg): 151 h
AUC0-inf (ng · h/mL) prodrug ([5]; 48 mg/kg): 267 ng·h/mL
Half-life t1/2 (hour) prodrug ([5]; 48 mg/kg): 171 h

C=C1CC[C@@]2(O)[C@H]3Cc4ccc(O)c5c4[C@@]2(CCN3CC2CC2)[C@H]1O5 [nalmefene, 17-cyclopropylmethyl-4,5α-epoxy-6-methylenemorphinan-3,14-diol, reference compound]
%Inh@MaxDose (KOR; MaxDose 1000 nM): 103%
%Inh@MaxDose (DOR; MaxDose 1000 nM): 94.5%
%Inh@MaxDose (MOR; MaxDose 1000 nM): 103.5%
